Key:
Assay type in all cases: biochemical
[1] = target: T1, PDE1 partially purified from bovine heart (Bos taurus, UniProt P14100); assay: PDE1 enzyme inhibition assay ([3H]cAMP hydrolysis, scintillation counting)
T1 construct: PDE1 partially purified from bovine heart was used; from tissue; host or cells: bovine heart
Source text: (§1) In this example, a racemic mixture of monochloroflosequinan and the sulfone derivative of monochloroflosequinan were independently subjected to biochemical enzyme assays to determine their respective percent inhibition of a variety of phosphodiesterases (PDE1-PDE6). The methods used have been adapted from those described in the scientific literature, see Hidaka and Asano “Human blood platelet 3′:5′ cyclic nucleotide phosphodiesterase. Isolation of low-Km and high Km phosphodiesterase.” Biochem. Biophys. Acta 429:485 (1976); Nicholoson et at. “Differential modulation of tissue function and therapeutic potential of selective inhibitors of cyclic nucleotide phosphodiesterase isoenzymes” Trends Pharmacol. Sci. 12:19 (1991); Cortijo et al. “Investigation into the role of phosphodiesterase IV in bronchorelaxation, including studies with hyman bronchus.” Br. J. Pharmacol. 108:562 (1993); Baehr et al. “Isolation and characterization of cGMP phosphodiesterase from bovine rod outer segments.” J. Biol. Chem. 254:11669 (1979) and Gillespie and Beavo “Inhibition and stimulation of photoreceptor phosphodiesterase by dipyridamole and M&B 22,948” Molecular Pharm. 36:773 (1989). […]
PDE1: PDE1 partially purified from bovine heart was used. […] Unhydrolyzed cAMP was bound to AGI-X2 resin, and the remaining [^3H]adenosine in the aqueous phase was quantitated by scintillation counting.

[2] = target: T2, PDE2 partially purified from human platelets (Homo sapiens, UniProt O00408); assay: PDE2 enzyme inhibition assay ([3H]cAMP hydrolysis, scintillation counting)
T2 construct: PDE2 partially purified from human platelets was used; from tissue; host or cells: human platelets
T2 sequence (O00408 whole entry): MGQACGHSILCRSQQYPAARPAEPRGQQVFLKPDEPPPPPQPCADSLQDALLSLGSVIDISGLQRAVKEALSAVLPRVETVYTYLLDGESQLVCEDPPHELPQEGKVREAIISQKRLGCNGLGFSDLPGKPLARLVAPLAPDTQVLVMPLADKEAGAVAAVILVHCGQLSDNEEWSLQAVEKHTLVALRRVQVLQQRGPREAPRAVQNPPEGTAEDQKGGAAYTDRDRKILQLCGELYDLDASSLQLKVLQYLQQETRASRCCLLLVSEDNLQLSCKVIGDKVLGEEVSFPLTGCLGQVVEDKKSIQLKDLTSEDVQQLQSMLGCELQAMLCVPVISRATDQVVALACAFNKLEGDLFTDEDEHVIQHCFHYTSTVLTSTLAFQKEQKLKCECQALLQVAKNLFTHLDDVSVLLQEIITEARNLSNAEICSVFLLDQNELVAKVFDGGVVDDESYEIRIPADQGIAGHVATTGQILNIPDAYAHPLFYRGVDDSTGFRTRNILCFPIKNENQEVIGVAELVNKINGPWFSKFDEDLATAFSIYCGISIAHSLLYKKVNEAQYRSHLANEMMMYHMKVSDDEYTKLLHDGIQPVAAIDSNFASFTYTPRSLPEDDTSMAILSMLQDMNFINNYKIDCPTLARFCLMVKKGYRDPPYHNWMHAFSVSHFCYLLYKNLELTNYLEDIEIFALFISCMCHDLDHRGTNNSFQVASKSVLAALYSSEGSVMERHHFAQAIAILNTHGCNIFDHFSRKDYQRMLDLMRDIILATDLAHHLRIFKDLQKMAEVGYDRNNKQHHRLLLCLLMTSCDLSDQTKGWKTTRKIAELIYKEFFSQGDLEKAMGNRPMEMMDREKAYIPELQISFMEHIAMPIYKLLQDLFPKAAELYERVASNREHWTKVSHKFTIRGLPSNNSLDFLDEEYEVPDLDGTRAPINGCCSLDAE
Source text: as §1
PDE2: PDE2 partially purified from human platelets was used. […] Unhydrolyzed cAMP was bound to AGI-X2 resin, and the remaining [^3H]adenosine in the aqueous phase was quantitated by scintillation counting.

[3] = target: T3, PDE3 partially purified from human platelets (Homo sapiens, UniProt Q14432); assay: PDE3 enzyme inhibition assay ([3H]cAMP hydrolysis, scintillation counting); conditions: for IC50: varying concentrations 300-1 μM
T3 construct: PDE3 partially purified from human platelets was used; from tissue; host or cells: human platelets
T3 sequence (Q14432 whole entry): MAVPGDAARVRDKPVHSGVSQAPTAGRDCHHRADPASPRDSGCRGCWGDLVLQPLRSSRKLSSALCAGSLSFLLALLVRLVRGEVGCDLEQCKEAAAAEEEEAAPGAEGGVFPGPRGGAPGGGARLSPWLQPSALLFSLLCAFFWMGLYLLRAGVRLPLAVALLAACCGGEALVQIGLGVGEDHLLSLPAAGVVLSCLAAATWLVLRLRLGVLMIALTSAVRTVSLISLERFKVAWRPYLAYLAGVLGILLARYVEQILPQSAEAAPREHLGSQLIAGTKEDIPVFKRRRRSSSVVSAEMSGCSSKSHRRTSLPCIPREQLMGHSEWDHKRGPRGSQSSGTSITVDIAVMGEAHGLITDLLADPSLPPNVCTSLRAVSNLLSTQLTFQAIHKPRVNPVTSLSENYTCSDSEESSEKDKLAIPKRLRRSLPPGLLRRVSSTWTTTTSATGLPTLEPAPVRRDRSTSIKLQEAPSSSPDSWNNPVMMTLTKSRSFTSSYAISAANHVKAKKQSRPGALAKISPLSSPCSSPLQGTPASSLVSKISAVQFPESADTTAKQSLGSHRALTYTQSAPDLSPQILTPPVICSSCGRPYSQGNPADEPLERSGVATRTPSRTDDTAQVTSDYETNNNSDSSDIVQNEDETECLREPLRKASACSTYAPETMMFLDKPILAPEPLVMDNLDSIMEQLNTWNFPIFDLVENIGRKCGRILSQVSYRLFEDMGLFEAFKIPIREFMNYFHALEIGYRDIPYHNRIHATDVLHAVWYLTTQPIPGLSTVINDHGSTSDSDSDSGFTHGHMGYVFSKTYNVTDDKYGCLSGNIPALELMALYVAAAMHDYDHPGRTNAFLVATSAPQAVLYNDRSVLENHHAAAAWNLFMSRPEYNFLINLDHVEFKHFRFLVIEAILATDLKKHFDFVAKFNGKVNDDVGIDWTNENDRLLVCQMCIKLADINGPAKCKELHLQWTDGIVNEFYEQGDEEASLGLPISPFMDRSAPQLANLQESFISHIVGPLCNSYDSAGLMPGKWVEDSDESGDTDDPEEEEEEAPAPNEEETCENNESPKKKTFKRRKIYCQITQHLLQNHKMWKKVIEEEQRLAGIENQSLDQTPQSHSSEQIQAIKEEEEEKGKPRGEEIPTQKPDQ
Source text: In this example, a racemic mixture of monochloroflosequinan and the sulfone derivative of monochloroflosequinan were independently subjected to biochemical enzyme assays to determine their respective percent inhibition of a variety of phosphodiesterases (PDE1-PDE6). The methods used have been adapted from those described in the scientific literature, see Hidaka and Asano “Human blood platelet 3′:5′ cyclic nucleotide phosphodiesterase. Isolation of low-Km and high Km phosphodiesterase.” Biochem. Biophys. Acta 429:485 (1976); Nicholoson et at. “Differential modulation of tissue function and therapeutic potential of selective inhibitors of cyclic nucleotide phosphodiesterase isoenzymes” Trends Pharmacol. Sci. 12:19 (1991); Cortijo et al. “Investigation into the role of phosphodiesterase IV in bronchorelaxation, including studies with hyman bronchus.” Br. J. Pharmacol. 108:562 (1993); Baehr et al. “Isolation and characterization of cGMP phosphodiesterase from bovine rod outer segments.” J. Biol. Chem. 254:11669 (1979) and Gillespie and Beavo “Inhibition and stimulation of photoreceptor phosphodiesterase by dipyridamole and M&B 22,948” Molecular Pharm. 36:773 (1989). A brief summary of the conditions for each enzyme assay is provided below:
PDE3: PDE3 partially purified from human platelets was used. The compounds were independently incubated with 13 μg PDE3 enzyme and 1.01 μM [^3H]cAMP+cAMP in Tris buffer pH 7.5 for 20 minutes at either 25° C. or 30° C. The reaction was terminated by boiling for 2 minutes, and the resulting AMP was converted to adenosine by addition of 10 mg/ml snake venom nucleotidase and further incubation at 30° C. for 10 minutes. Unhydrolyzed cAMP was bound to AGI-X2 resin, and the remaining [^3H]adenosine in the aqueous phase was quantitated by scintillation counting.

[4] = 100 μM compound, 30° C., 1% DMSO vehicle
[5] = varying concentrations 300-1 μM

T1 sequence (P14100 1-514 isoform P14100-2): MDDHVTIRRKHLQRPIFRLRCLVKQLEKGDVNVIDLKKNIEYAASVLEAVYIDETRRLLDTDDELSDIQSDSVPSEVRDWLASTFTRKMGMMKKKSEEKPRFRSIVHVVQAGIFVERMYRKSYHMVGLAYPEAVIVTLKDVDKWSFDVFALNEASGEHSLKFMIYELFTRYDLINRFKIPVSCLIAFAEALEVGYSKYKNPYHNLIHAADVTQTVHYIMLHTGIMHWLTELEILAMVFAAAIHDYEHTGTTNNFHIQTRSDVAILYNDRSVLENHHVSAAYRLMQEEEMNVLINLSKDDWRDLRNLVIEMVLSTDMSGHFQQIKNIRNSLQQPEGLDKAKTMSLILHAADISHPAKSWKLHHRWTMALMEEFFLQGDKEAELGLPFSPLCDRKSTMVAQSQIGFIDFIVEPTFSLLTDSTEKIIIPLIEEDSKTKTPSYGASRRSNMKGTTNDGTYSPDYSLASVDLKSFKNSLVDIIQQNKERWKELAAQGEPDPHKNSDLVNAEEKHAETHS

inhibition of PDE1 [1, 4]	IC50 [1, 5] [µM]	inhibition of PDE2 [2, 4]	IC50 [2, 5] [µM]	inhibition of PDE3 [3, 4]	IC50 [3] [µM]	inhibition at 100 µM ([3]; 100 μM compound, 25° C., 1% DMSO vehicle) [%]	SMILES
Significant inhibition	65.6	Significant inhibition	> 300	Significant inhibition	28.2	–	Cn1cc([S+]([O-])CCl)c(=O)c2ccc(F)cc21 (racemic) [monochloroflosequinan, 3-chloromethylsulfinyl-7-fluoro-1-methyl-4-quinolone]
–	–	–	–	–	95.9	> 50	Cn1cc(S(=O)(=O)CCl)c(=O)c2ccc(F)cc21 [monochloroflosequinan sulfone, 3-chloromethylsulfonyl-7-fluoro-1-methyl-4-quinolone]

From US6730790B2, “Chlorinated heterocyclic compounds and methods of synthesis” (R.T. Alamo Ventures I. LLC, priority 2002, dated 2004)
